This assay has as its target T1, α1G T-type Ca2+ channels (Homo sapiens, UniProt O43497).
T1 construct: expressed in transfected cells; host or cells: HEK293 cells stably expressing α1G and Kir2.1
Nature of the assay: Screening of activity against T-type calcium channel with FDSS6000 (fluorescence, KCl-induced [Ca2+]i increase). The assay is classed as cell-based. The settings on record: HEK293 cells expressing α1G and Kir2.1, read-out: Inhibitory effect (%) of T-type calcium channel, Inhibition (%); for inhibition at 10 µM: NA: Not Active. The method, boiled down:
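HEK293 cells stably expressing α1G plus Kir2.1 were loaded with 5 μM fluo3/AM for 60 min at room temperature in HEPES buffer pH 7.4. In buffer with 10 mM CaCl2, cells were pretreated with compound, then depolarized with 70 mM KCl. The rise in [Ca2+]i was measured by fluorescence […].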

For orientation: inhibition means how much of the control response was suppressed.

T1 sequence (O43497 whole entry): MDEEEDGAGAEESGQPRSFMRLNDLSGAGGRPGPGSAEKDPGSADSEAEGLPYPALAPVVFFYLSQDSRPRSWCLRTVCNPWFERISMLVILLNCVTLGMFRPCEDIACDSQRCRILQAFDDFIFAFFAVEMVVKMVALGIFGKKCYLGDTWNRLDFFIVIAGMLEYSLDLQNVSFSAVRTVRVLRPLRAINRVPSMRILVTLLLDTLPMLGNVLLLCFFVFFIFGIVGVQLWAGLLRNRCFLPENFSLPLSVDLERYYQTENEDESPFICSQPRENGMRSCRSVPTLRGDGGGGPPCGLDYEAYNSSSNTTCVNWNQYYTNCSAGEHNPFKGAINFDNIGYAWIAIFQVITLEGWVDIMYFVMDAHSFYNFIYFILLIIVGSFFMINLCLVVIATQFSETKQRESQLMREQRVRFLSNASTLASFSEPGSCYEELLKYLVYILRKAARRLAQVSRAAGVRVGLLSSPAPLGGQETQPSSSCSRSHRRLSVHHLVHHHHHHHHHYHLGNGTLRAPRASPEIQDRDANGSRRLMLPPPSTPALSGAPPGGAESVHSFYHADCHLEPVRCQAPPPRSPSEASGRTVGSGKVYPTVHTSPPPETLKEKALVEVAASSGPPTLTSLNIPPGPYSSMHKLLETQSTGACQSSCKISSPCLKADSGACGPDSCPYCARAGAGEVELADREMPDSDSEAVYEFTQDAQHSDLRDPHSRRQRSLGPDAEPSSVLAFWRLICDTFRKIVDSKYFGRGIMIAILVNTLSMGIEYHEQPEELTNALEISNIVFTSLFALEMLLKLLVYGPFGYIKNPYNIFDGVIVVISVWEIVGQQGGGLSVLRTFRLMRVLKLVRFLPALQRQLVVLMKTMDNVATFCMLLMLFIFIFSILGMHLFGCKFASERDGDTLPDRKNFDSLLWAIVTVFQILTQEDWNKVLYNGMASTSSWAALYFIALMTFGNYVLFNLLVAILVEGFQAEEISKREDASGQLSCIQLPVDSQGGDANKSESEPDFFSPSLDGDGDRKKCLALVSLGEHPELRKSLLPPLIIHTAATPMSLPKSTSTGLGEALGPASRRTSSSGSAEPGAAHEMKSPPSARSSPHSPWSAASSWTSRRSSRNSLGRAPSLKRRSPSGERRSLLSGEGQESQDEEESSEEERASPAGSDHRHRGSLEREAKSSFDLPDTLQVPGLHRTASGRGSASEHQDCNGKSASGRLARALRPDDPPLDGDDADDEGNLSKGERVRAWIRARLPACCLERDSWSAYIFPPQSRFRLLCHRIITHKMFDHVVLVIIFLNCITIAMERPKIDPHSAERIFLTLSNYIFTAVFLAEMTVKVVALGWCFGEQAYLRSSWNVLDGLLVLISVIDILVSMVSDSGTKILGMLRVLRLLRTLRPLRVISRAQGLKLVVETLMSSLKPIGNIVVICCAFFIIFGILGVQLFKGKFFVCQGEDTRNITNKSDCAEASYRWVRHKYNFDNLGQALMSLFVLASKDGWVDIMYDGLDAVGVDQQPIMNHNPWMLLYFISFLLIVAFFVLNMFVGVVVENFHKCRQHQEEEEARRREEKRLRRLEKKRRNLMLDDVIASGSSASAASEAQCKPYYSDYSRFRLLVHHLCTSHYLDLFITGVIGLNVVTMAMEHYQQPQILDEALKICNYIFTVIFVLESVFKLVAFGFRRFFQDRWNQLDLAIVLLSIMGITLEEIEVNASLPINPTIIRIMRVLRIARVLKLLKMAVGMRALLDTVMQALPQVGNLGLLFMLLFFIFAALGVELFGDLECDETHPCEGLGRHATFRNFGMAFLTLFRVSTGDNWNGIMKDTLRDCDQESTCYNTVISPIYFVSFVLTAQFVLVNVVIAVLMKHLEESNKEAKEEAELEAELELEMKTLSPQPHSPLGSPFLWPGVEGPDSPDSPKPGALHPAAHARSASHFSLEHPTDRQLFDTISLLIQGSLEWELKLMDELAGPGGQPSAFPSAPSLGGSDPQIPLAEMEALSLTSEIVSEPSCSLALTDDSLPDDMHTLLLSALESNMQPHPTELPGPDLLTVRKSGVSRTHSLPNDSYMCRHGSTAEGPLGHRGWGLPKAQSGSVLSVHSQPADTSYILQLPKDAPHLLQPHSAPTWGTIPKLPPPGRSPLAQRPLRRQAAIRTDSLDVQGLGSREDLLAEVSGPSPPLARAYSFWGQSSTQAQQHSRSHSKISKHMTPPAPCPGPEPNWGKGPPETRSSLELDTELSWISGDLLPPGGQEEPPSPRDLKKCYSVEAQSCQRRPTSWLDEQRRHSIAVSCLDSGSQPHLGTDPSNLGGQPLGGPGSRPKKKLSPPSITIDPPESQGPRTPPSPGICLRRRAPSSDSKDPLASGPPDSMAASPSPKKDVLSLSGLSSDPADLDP

For `Cc1ccccc1CN1C(=O)c2ccc(C(=O)NCCN3CCOCC3)cc2C1=O` [Compound 97, 4-(2-{[2-(2-methyl-benzyl)-1,3-dioxo-2,3-dihydro-1H-isoindol-5-carbonyl]-amino}-ethyl)-4-morpholinium chloride], the inhibition at 100 µM stood at 69.8%.
Still for that read-out and setting: under `Cc1ccccc1CN1C(=O)c2ccc(C(=O)NCCCN3CCOCC3)cc2C1=O` [Compound 98, 4-(3-{[2-(2-methyl-benzyl)-1,3-dioxo-2,3-dihydro-1H-isoindol-5-carbonyl]-amino}-propyl)-4-morpholinium chloride] stands 55.2%.
In the case of `Cc1cccc(CN2C(=O)c3ccc(C(=O)NCCN4CCCC4)cc3C2=O)c1` [Compound 101, 1-(2-{[2-(3-methyl-benzyl)-1,3-dioxo-2,3-dihydro-1H-isoindol-5-carbonyl]-amino}-ethyl)-pyrrolidinium chloride], the inhibition at 10 µM came out at 27.2%.
For the compound `Cc1cccc(CN2C(=O)c3ccc(C(=O)NCCCN4CCCC4)cc3C2=O)c1` [Compound 102, 1-(3-{[2-(3-methyl-benzyl)-1,3-dioxo-2,3-dihydro-1H-isoindol-5-carbonyl]-amino}-propyl)-pyrrolidinium chloride], the inhibition at 10 µM was 24.8%.
Take `Cc1cccc(CN2C(=O)c3ccc(C(=O)NCCN4CCOCC4)cc3C2=O)c1` [Compound 103, 4-(2-{[2-(3-methyl-benzyl)-1,3-dioxo-2,3-dihydro-1H-isoindol-5-carbonyl]-amino}-ethyl)-4-morpholinium chloride]: the inhibition at 10 µM turned out to be 21.1%.
For `Cc1cccc(CN2C(=O)c3ccc(C(=O)NCCCN4CCOCC4)cc3C2=O)c1` [Compound 104, 4-(3-{[2-(3-methyl-benzyl)-1,3-dioxo-2,3-dihydro-1H-isoindol-5-carbonyl]-amino}-propyl)-4-morpholinium chloride], the inhibition at 10 µM is 15.5%.
On the same count and under the same terms, under `Cc1ccc(CN2C(=O)c3ccc(C(=O)NCCN4CCCCC4)cc3C2=O)cc1` [Compound 105, 1-(2-{[2-(4-methyl-benzyl)-1,3-dioxo-2,3-dihydro-1H-isoindol-5-carbonyl]-amino}-ethyl)-piperidinium chloride] stands 30.9%; under `Cc1ccc(CN2C(=O)c3ccc(C(=O)NCCCN4CCCCC4)cc3C2=O)cc1` [Compound 106, 1-(3-{[2-(4-methyl-benzyl)-1,3-dioxo-2,3-dihydro-1H-isoindol-5-carbonyl]-amino}-propyl)-piperidinium chloride], 40.1%.
For `Cc1ccc(CN2C(=O)c3ccc(C(=O)NCCN4CCCC4)cc3C2=O)cc1` [Compound 107, 1-(2-{[2-(4-methyl-benzyl)-1,3-dioxo-2,3-dihydro-1H-isoindol-5-carbonyl]-amino}-ethyl)-pyrrolidinium chloride], the inhibition at 10 µM amounted to 20.7%.
Still for that read-out and setting: under `Cc1ccc(CN2C(=O)c3ccc(C(=O)NCCCN4CCCC4)cc3C2=O)cc1` [Compound 108, 1-(3-{[2-(4-methyl-benzyl)-1,3-dioxo-2,3-dihydro-1H isoindol-5-carbonyl]-amino}-propyl)-pyrrolidinium chloride] stands 15.6%; under `Cc1ccc(CN2C(=O)c3ccc(C(=O)NCCN4CCOCC4)cc3C2=O)cc1` [Compound 109, 4-(2-{[2-(4-methyl-benzyl)-1,3-dioxo-2,3-dihydro-1H-isoindol-5-carbonyl]-amino}-ethyl)-4-morpholinium chloride], 12.2%; under `Cc1ccc(CN2C(=O)c3ccc(C(=O)NCCCN4CCOCC4)cc3C2=O)cc1` [Compound 110, 4-(3-{[2-(4-methyl-benzyl)-1,3-dioxo-2,3-dihydro-1H-isoindol-5-carbonyl]-amino}-propyl)-4-morpholinium chloride], 9.1%.
On to `COc1ccccc1CN1C(=O)c2ccc(C(=O)NCCN3CCCCC3)cc2C1=O` [Compound 111, 1-(2-{[2-(2-methoxy-benzyl)-1,3-dioxo-2,3-dihydro-1H-isoindol-5-carbonyl]-amino}-ethyl)-piperidinium chloride], for which the inhibition at 100 µM was 69.5%.
Same read-out and setting: as for `COc1ccccc1CN1C(=O)c2ccc(C(=O)NCCCN3CCCCC3C)cc2C1=O` (stereo not shown) [Compound 112, 1-(3-{[2-(2-methoxy-benzyl)-1,3-dioxo-2,3-dihydro-1H-isoindol-5-carbonyl]-amino}-propyl)-2-methyl-piperidinium chloride], the figure is 75.1%; as for `COc1ccccc1CN1C(=O)c2ccc(C(=O)NCCN3CCCC3)cc2C1=O` [Compound 113, 1-(2-{[2-(2-methoxy-benzyl)-1,3-dioxo-2,3-dihydro-1H-isoindol-5-carbonyl]-amino}-ethyl)-pyrrolidinium chloride], 55.1%; as for `COc1ccccc1CN1C(=O)c2ccc(C(=O)NCCCN3CCCC3)cc2C1=O` [Compound 114, 1-(3-{[2-(2-methoxy-benzyl)-1,3-dioxo-2,3-dihydro-1H-isoindol-5-carbonyl]-amino}-propyl)-pyrrolidinium chloride], 53%.
Regarding `COc1ccccc1CN1C(=O)c2ccc(C(=O)NCCN3CCOCC3)cc2C1=O` [Compound 115, 4-(2-{[2-(2-methoxy-benzyl)-1,3-dioxo-2,3-dihydro-1H-isoindol-5-carbonyl]-amino}-ethyl)-4-morpholinium chloride], the inhibition at 100 µM worked out at 51.1%.
As to `COc1ccccc1CN1C(=O)c2ccc(C(=O)NCCCN3CCOCC3)cc2C1=O` [Compound 116, 4-(3-{[2-(2-methoxy-benzyl)-1,3-dioxo-2,3-dihydro-1H-isoindol-5-carbonyl]-amino}-propyl)-4-morpholinium chloride], the inhibition at 100 µM came to 48.8%.
Still for that read-out and setting: under `COc1cccc(CN2C(=O)c3ccc(C(=O)NCCN4CCCCC4)cc3C2=O)c1` [Compound 117, 1-(2-{[2-(3-methoxy-benzyl)-1,3-dioxo-2,3-dihydro-1H-isoindol-5-carbonyl]-amino}-ethyl)-piperidinium chloride] stands 69.8%.
For the compound `COc1cccc(CN2C(=O)c3ccc(C(=O)NCCCN4CCCCC4C)cc3C2=O)c1` (stereo not shown) [Compound 118, 1-(3-{[2-(3-methoxy-benzyl)-1,3-dioxo-2,3-dihydro-1H-isoindol-5-carbonyl]-amino}-propyl)-2-methyl-piperidinium chloride], the inhibition at 100 µM was found to be 71.1%.
For the compound `COc1cccc(CN2C(=O)c3ccc(C(=O)NCCN4CCCC4)cc3C2=O)c1` [Compound 119, 1-(2-{[2-(3-methoxy-benzyl)-1,3-dioxo-2,3-dihydro-1H-isoindol-5-carbonyl]-amino}-ethyl)-pyrrolidinium chloride], the inhibition at 100 µM is 56.3%.
As for `COc1cccc(CN2C(=O)c3ccc(C(=O)NCCCN4CCCC4)cc3C2=O)c1` [Compound 120, 1-(3-{[2-(3-methoxy-benzyl)-1,3-dioxo-2,3-dihydro-1H-isoindol-5-carbonyl]-amino}-propyl)-pyrrolidinium chloride], the inhibition at 100 µM came to 63.7%.
As to `COc1cccc(CN2C(=O)c3ccc(C(=O)NCCN4CCOCC4)cc3C2=O)c1` [Compound 121, 4-(2-{[2-(3-methoxy-benzyl)-1,3-dioxo-2,3-dihydro-1H-isoindol-5-carbonyl]-amino}-ethyl)-4-morpholinium chloride], the inhibition at 100 µM came out at 57.6%.
The same measure, in the same setting: as for `COc1cccc(CN2C(=O)c3ccc(C(=O)NCCCN4CCOCC4)cc3C2=O)c1` [Compound 122, 4-(3-{[2-(3-methoxy-benzyl)-1,3-dioxo-2,3-dihydro-1H-isoindol-5-carbonyl]-amino}-propyl)-4-morpholinium chloride], the figure is 56.6%; as for `COc1ccc(CN2C(=O)c3ccc(C(=O)NCCN4CCCCC4)cc3C2=O)cc1` [Compound 123, 1-(2-{[2-(4-methoxy-benzyl)-1,3-dioxo-2,3-dihydro-1H isoindol-5-carbonyl]-amino}-ethyl)-piperidinium chloride], 64.3%.
Same read-out and setting: under `COc1ccc(CN2C(=O)c3ccc(C(=O)NCCCN4CCCCC4C)cc3C2=O)cc1` (stereo not shown) [Compound 124, 1-(3-{[2-(4-methoxy-benzyl)-1,3-dioxo-2,3-dihydro-1H-isoindol-5-carbonyl]-amino}-propyl)-2-methyl-piperidinium chloride] stands 77.7%.
As to `COc1ccc(CN2C(=O)c3ccc(C(=O)NCCN4CCCC4)cc3C2=O)cc1` [Compound 125, 1-(2-{[2-(4-methoxy-benzyl)-1,3-dioxo-2,3-dihydro-1H-isoindol-5-carbonyl]-amino}-ethyl)-pyrrolidinium chloride], the inhibition at 100 µM came out at 65.2%.
`COc1ccc(CN2C(=O)c3ccc(C(=O)NCCCN4CCCC4)cc3C2=O)cc1` [Compound 126, 1-(3-{[2-(4-methoxy-benzyl)-1,3-dioxo-2,3-dihydro-1H-isoindol-5-carbonyl]-amino}-propyl)-pyrrolidinium chloride]: the inhibition at 100 µM came out at 73.8%.
As to `COc1ccc(CN2C(=O)c3ccc(C(=O)NCCN4CCOCC4)cc3C2=O)cc1` [Compound 127, 4-(2-{[2-(4-methoxy-benzyl)-1,3-dioxo-2,3-dihydro-1H-isoindol-5-carbonyl]-amino}-ethyl)-4-morpholinium chloride], the inhibition at 100 µM worked out at 51.7%.
The same measure, in the same setting: under `COc1ccc(CN2C(=O)c3ccc(C(=O)NCCCN4CCOCC4)cc3C2=O)cc1` [Compound 128, 4-(3-{[2-(4-methoxy-benzyl)-1,3-dioxo-2,3-dihydro-1H-isoindol-5-carbonyl]-amino}-propyl)-4-morpholinium chloride] stands 52.9%.
With `CC1CCCCN1CCCNC(=O)c1ccc2c(c1)C(=O)N(Cc1ccc(C#N)cc1)C2=O` (stereo not shown) [Compound 130, 1-(3-{[2-(4-cyano-benzyl)-1,3-dioxo-2,3-dihydro-1H-isoindol-5-carbonyl]-amino}-propyl)-2-methyl-piperidinium chloride], the inhibition at 10 µM came to 9.1%.

Source of the values: patent publication US7319098B2, “1,3-dioxoisoindole derivatives having selective antagonism of T-type calcium channel” (Korea Institute of Science and Technology, priority 2006, dated 2008).
